In patent US8653096B2, “Chemokine receptor antagonists and methods of use thereof” (Millennium Pharmaceuticals, Inc., priority 2001, dated 2014):

Target: T1, RANTES/MIP-1α chemokine receptor (CCR1) in THP-1 cell membranes (Homo sapiens, UniProt P32246)
T1 construct: Membranes were prepared from THP-1 cells (ATCC #TIB202); host or cells: THP-1 cells (membrane preparation)
T1 sequence (P32246 1-355): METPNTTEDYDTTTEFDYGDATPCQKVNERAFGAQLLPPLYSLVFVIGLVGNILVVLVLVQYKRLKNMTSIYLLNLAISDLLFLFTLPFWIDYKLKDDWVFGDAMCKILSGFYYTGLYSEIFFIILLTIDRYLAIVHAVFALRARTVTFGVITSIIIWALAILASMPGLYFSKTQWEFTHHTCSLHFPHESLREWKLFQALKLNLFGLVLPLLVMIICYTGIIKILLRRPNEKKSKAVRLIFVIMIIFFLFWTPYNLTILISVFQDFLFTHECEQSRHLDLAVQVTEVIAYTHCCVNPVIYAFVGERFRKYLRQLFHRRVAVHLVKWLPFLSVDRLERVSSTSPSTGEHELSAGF
Test: Receptor binding assay: 125I-RANTES or 125I-MIP-1α binding to THP-1 cell membranes
Conditions: inhibitor concentration required for 50% inhibition of specific binding; 125I-RANTES or 125I-MIP-1α as ligand, THP-1 cell membranes; read-out: IC50
Protocol: Membranes were prepared from THP-1 cells (ATCC #TIB202). Cells were harvested by centrifugation, washed twice with PBS (phosphate-buffered saline), and the cell pellets were frozen at −70 to −85° C. The frozen pellet was thawed in ice-cold lysis buffer consisting of 5 mM HEPES (N-2-hydroxyethylpiperazine-N′-2-ethane-sulfonic acid) pH 7.5, 2 mM EDTA (ethylenediaminetetraacetic acid), 5 μg/ml each aprotinin, leupeptin, and chymostatin (protease inhibitors), and 100 μg/ml PMSF (phenyl methane sulfonyl fluoride—also a protease inhibitor), at a concentration of 1 to 5×10^7 cells/ml. This procedure results in cell lysis. The suspension was mixed well to resuspend all of the frozen cell pellet. Nuclei and cell debris were removed by centrifugation of 400×g for 10 minutes at 4° C. The supernatant was transferred to a fresh tube and the membrane fragments were collected by centrifugation at 25,000×g for 30 minutes at 4° C. The supernatant was aspirated and the pellet was resuspended in freezing buffer consisting of 10 mM HEPES pH 7.5, 300 mM sucrose, 1 μg/ml each aprotinin, leupeptin, and chymostatin, and 10 μg/ml PMSF (approximately 0.1 ml per each 10^8 cells). All clumps were resolved using a minihomogenizer, and the total protein concentration was determined using a protein assay kit (Bio-Rad, Hercules, Calif., cat #500-0002). The membrane solution was then aliquoted and frozen at −70 to −85° C. until needed.
Binding Assays utilized the membranes described above. […] The binding reactions were performed in 60 to 100 μl of a binding buffer consisting of 10 mM HEPES pH 7.2, 1 mM CaCl2, 5 mM MgCl2, and 0.5% BSA (bovine serum albumin), for 60 min at room temperature. The binding reactions were terminated by harvesting the membranes by rapid filtration through glass fiber filters (GF/B or GF/C, Packard) which were presoaked in 0.3% polyethyleneimine. The filters were rinsed with approximately 600 μl of binding buffer containing 0.5 M NaCl, dried, and the amount of bound radioactivity was determined by scintillation counting in a Topcount beta-plate counter.
Specific binding is defined as the total binding minus the non-specific binding; non-specific binding is the amount of cpm still detected in the presence of excess unlabeled Rantes or MIP-1α.

| Substance | IC50 [nM] |
| --- | --- |
| 4-(4-Chlorophenyl)-1-[3-(5,11-dihydro-7-(2-propoxy)carbonyl-[1]benzoxepino[2,3-b]pyridin-5-ylidene) propyl]piperidine-4-ol [Example 428] | < 1000 |
| 4-(4-Chlorophenyl)-1-[3-(5,11-dihydro-7-(ethoxycarbonylmethyl)-oxycarbonyl-[1]benzoxepino[2,3-b]pyridin-5-ylidene) propyl]piperidine-4-ol [Example 424] | < 1000 |
| 4-(4-Chlorophenyl)-1-[3-(5,11-dihydro-7-cyclohexyloxycarbonyl-[1]benzoxepino[2,3-b]pyridin-5-ylidene)propyl]piperidine-4-ol [Example 425] | < 1000 |
| 4-(4-Chlorophenyl)-1-[3-(5,11-dihydro-7-cyclopentyl-oxycarbonyl-[1]benzoxepino[2,3-b]pyridin-5-ylidene) propyl]piperidine-4-ol [Example 429] | < 1000 |
| 4-(4-Chlorophenyl)-1-[3-(5,11-dihydro-7-dimethylaminocarbonylmethyloxy[1]benzoxepino[2,3-b]pyridin-5-ylidene)propyl]piperidin-4-ol [Example 134] | < 1000 |
| 4-(4-Chlorophenyl)-1-[3-(5,11-dihydro-7-dimethylaminocarbonylmethyloxy[1]benzoxepino[2,3-b]pyridin-5-ylidene)propyl]piperidine [Example 155] | < 1000 |
| 4-(4-Chlorophenyl)-1-[3-(5,11-dihydro-7-ethoxy [1]benzoxepino[2,3-b]pyridin-5-ylidene)propyl]piperidin-4-ol [Example 46] | < 1000 |
| 4-(4-Chlorophenyl)-1-[3-(5,11-dihydro-7-ethoxy[1]benzoxepino[2,3-b]pyridin-5-ylidene)propyl]piperidine [Example 152] | < 1000 |
| 4-(4-Chlorophenyl)-1-[3-(5,11-dihydro-7-ethoxycarbonyl-[1]benzoxepino[2,3-b]pyridin-5-ylidene) propyl]piperidine-4-ol [Example 423] | < 1000 |
| 4-(4-Chlorophenyl)-1-[3-(5,11-dihydro-7-ethoxycarbonylmethyloxy[1]benzoxepino[2,3-b]pyridin-5-ylidene)propyl]piperidin-4-ol [Example 48] | < 1000 |
| 4-(4-Chlorophenyl)-1-[3-(5,11-dihydro-7-ethyl[1]benzoxepino[2,3-b]pyridin-5-ylidene)propyl]piperidin-4-ol [Example 163] | < 1000 |
| 4-(4-Chlorophenyl)-1-[3-(5,11-dihydro-7-hydroxy [1]benzoxepino[2,3-b]pyridin-5-ylidene)propyl]piperidin-4-ol [Example 44] | < 1000 |
| 4-(4-Chlorophenyl)-1-[3-(5,11-dihydro-7-hydroxy[1]benzoxepino[2,3-b]pyridin-5-ylidene)propyl]piperidine [Example 151] | < 1000 |
| 4-(4-Chlorophenyl)-1-[3-(5,11-dihydro-7-isopropoxy[1]benzoxepino[2,3-b]pyridin-5-ylidene)propyl]piperidin-4-ol [Example 47] | < 1000 |
| 4-(4-Chlorophenyl)-1-[3-(5,11-dihydro-7-methoxy[1]benzoxepino[2,3-b]pyridin-5-ylidene)propyl]-1,2,3,6-tetrahydropyridine [Example 194] | < 1000 |
| 4-(4-Chlorophenyl)-1-[3-(5,11-dihydro-7-methoxy[1]benzoxepino[2,3-b]pyridin-5-ylidene)propyl]piperidin-4-ol [Example 45] | < 1000 |
| 4-(4-Chlorophenyl)-1-[3-(5,11-dihydro-7-methoxy[1]benzoxepino[2,3-b]pyridin-5-ylidene)propyl]piperidine [Example 65] | < 1000 |
| 4-(4-Chlorophenyl)-1-[3-(5,11-dihydro-7-methylaminocarbonyl[1]benzoxepino[2,3-b]pyridin-5-ylidene)propyl]piperidin-4-ol [Example 268] | < 1000 |

| Substance | IC50 [nM] |
| --- | --- |
| 4-(4-Chlorophenyl)-1-[3-(5,11-dihydro-7-methylaminocarbonylmethyloxy[1]benzoxepino[2,3-b]pyridin-5-ylidene)propyl]piperidin-4-ol [Example 182] | < 1000 |
| 4-(4-Chlorophenyl)-1-[3-(5,11-dihydro-7-morpholinocarbonylmethyloxy[1]benzoxepino[2,3-b]pyridin-5-ylidene)propyl]piperidin-4-ol [Example 135] | < 1000 |
| 4-(4-Chlorophenyl)-1-[3-(5,11-dihydro-7-phenyl[1]benzoxepino[2,3-b]pyridin-5-ylidene)propyl]piperidin-4-ol [Example 291] | < 1000 |
| 4-(4-Chlorophenyl)-1-[3-(5,11-dihydro-7-propargyloxy[1]benzoxepino [2,3-b]pyridin-5-ylidene)propyl]piperidin-4-ol [Example 173] | < 1000 |
| 4-(4-Chlorophenyl)-1-[3-(5,11-dihydro-7-propoxy[1]benzoxepino[2,3-b]pyridin-5-ylidene)propyl]piperidin-4-ol [Example 128] | < 1000 |
| 4-(4-Chlorophenyl)-1-[3-(5,11-dihydro-8-methoxy[1]benzoxepino[2,3-b]pyridin-5-ylidene)propyl]piperidin-4-ol [Example 114] | < 1000 |
| 4-(4-Chlorophenyl)-1-[3-(5,11-dihydro-9-methoxy[1]benzoxepino[2,3-b]pyridin-5-ylidene)propyl]piperidin-4-ol [Example 166] | < 10000 |
| 4-(4-Chlorophenyl)-1-[3-(5,11-dihydro[1]benzothiepino[2,3-b]pyridin-5-ylidene)propyl]piperidin-4-ol [Example 111] | < 1000 |
| 4-(4-Chlorophenyl)-1-[3-(7-(2-ethoxycarboxy)ethyl-5,11-dihydro[1]benzoxepino[2,3-b]pyridin-5-ylidene)propyl]piperidin-4-ol [Example 288] | < 1000 |
| 4-(4-Chlorophenyl)-1-[3-(7-(2-furyl)-5,11-dihydro[1]benzoxepino[2,3-b]pyridin-5-ylidene)propyl]piperidin-4-ol [Example 292] | < 1000 |
| 4-(4-Chlorophenyl)-1-[3-(7-carboxymethyl-5,11-dihydro[1]benzoxepino[2,3-b]pyridin-5-ylidene)propyl]piperidin-4-ol [Example 120] | < 1000 |
| 4-(4-Chlorophenyl)-1-[3-(7-cyanomethyloxy-5,11-dihydro[1]benzoxepino[2,3-b]pyridin-5-ylidene)propyl]piperidin-4-ol [Example 49] | < 1000 |
| 4-(4-Chlorophenyl)-1-[3-(7-cyclopentoxy-5,11-dihydro[1]benzoxepino[2,3-b]pyridin-5-ylidene)propyl]piperidin-4-ol [Example 174] | < 1000 |
| 4-(4-Chlorophenyl)-1-[3-(7-cyclopropylmethyloxy-5,11-dihydro [1]benzoxepino[2,3-b]pyridin-5-ylidene)propyl]piperidin-4-ol [Example 130] | < 1000 |
| 4-(4-Chlorophenyl)-1-[3-(7-diethylaminocarbonyl-5,11-dihydro[1]benzoxepino[2,3-b]pyridin-5-ylidene)propyl]piperidin-4-ol [Example 270] | < 1000 |
| 4-(4-Chlorophenyl)-1-[3-(7-diethylaminocarbonylmethyloxy-5,11-dihydro[1]benzoxepino[2,3-b]pyridin-5-ylidene)propyl]piperidin-4-ol [Example 263] | < 1000 |
| 4-(4-Chlorophenyl)-1-[3-(7-dimethylaminocarbonyl-5,11-dihydro[1]benzoxepino[2,3-b]pyridin-5-ylidene)propyl]piperidin-4-ol [Example 198] | < 1000 |
| 4-(4-Chlorophenyl)-1-[3-(7-dimethylaminocarbonylmethyl-5,11-dihydro[1]benzoxepino[2,3-b]pyridin-5-ylidene)propyl]piperidin-4-ol [Example 122] | < 1000 |
